{"source": "patent US20210386792A1", "about": "“A METHOD FOR INCREASING POPULATION OF SPERMATOGONIAL STEM CELLS” (priority 2018, published 2021)", "key": {"NFATc1 and EGR-1": {"test_system": "NFATc1 and EGR-1", "experiment": "Nuclear translocation of NFATc1 and EGR-1 in TECs", "type": "cell-based, mouse", "details": "TEC, 2 ng/ml FGF-2", "procedure": "Quantication of nuclear translocation of EGR1 and NFATc1 in TECs after treatment with conditioned media (CM), 2 ng ml-1 FGF-2±CsA. Values are mean±s.e.m. g."}, "LiECs": {"test_system": "LiECs", "experiment": "GDNF ELISA in conditioned media from LiECs", "type": "cell-based", "details": "mouse LiECs", "description": "(§1) Testis, lung, or liver ECs were plated (10,000 cells ml^−1) on 12 well dishes coated with 0.1% gelatin and cultured for 24 hours. Conditioned media was harvested at 24 and 48 hours after FGF-2 (2 ng ml^−1, 20 ng ml^−1 and 50 ng ml^−1) treatment and analyzed by ELISA for GDNF (Promega GDNF Emax immunoassay system, #G7621) following the manufacturer's instruction. Statistics was analyzed using Graph Pad Prism. For quantification of Gdnf mRNA, total RNA was isolated from the cells using Direct-zol RNA MiniPrep (Zymo Research) and reverse transcribed using High Capacity cDNA Reverse Transcription Kit (Appliedbiosystems), according to the manufacturer's instructions. All gene expression levels were normalized to GAPDH mRNA levels.\n(§2) FIG. 2. a. Quantication of GDNF by ELISA in conditioned media from TECs, LuECs and LiECs after treatment with the indicated concentration of FGF-2 for 2 days, n=3. Bar=100 μm. Data are presented as the mean±s.e.m. b. Representative brighteld (BF) and GFP images of 2D cultures of GFP+ SSCs co-cultured with STO cells or TECs plus exogenous GDNF and FGF-2 on days 1 and 8 after seeding. Quantication of stem cell numbers 8 days after co-culture with STO or TECs and the average colony area are shown on the right, n=3. Data are presented as the mean±s.e.m. Bar=100 μm. *P<0.05. c. […]"}, "LuECs": {"test_system": "LuECs", "experiment": "GDNF ELISA in conditioned media from LuECs", "type": "cell-based", "details": "mouse LuECs", "description": "as §1, §2"}}}
{"substance": "fibroblast growth factor-2 [FGF-2]", "values": [{"measurement": "nuclear localization of EGR1", "setting": "NFATc1 and EGR-1", "value": "increased"}, {"measurement": "nuclear localization of NFATc1", "setting": "NFATc1 and EGR-1", "value": "increased"}, {"measurement": "GDNF production in conditioned media of LiECs after FGF-2 treatment", "setting": "LiECs", "value": "not"}, {"measurement": "GDNF production in conditioned media of LuECs after FGF-2 treatment", "setting": "LuECs", "value": "not"}]}
